pIC50: −log10 of the molar value.
Molecular target: T1, Human CXCR3 (N-delta 4) (Homo sapiens, UniProt P49682)
T1 construct: CD8 leader (N); Flag tag; expressed in transfected cells; membranes prepared
T1 sequence (P49682 5-368 limits assumed): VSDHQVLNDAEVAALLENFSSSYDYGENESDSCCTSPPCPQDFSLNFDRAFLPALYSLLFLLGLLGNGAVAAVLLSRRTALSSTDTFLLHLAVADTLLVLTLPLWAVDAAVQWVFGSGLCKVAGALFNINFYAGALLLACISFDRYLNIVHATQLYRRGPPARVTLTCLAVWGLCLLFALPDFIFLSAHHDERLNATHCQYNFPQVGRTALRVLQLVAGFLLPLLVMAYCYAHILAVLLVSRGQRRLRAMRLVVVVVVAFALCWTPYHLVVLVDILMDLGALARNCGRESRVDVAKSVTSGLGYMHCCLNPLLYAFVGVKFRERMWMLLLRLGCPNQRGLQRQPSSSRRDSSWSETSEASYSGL
Assay: Human CXCR3 (N-delta 4) scintillation proximity assay (SPA), [125I] IP-10 binding to Ba/F3-hCXCR3 membranes
Conditions: IC50 rating; 25 pM [125I] IP-10, membranes of Ba/F3 cells expressing human CXCR3 (N-delta 4)
Procedure, shortened: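 Membranes from Ba/F3 pro-B cells stably expressing Flag-tagged hCXCR3 (N-delta 4), 2 μg per point, prebound 1 hr to WGA SPA beads in HEPES buffer with CaCl2, MgCl2, NaCl, 1.0% BSA. Competition with 25 pM [125I] IP-10 and titrated compounds, 3 hr at room temperature; bound radioligand counted; […].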

SMILES	pIC50
CC[C@H]1CN(c2nc(N)c(C(N)=O)nc2Cl)CCN1C1CCN(C(=O)c2ccc(Cl)c3cc[nH]c23)CC1 [compound 152]	< 7.00
CC[C@H]1CN(c2ncc(C(=O)OC)nc2C)CCN1C1CCN(C(=O)c2ccc(Cl)nc2N)CC1 [compound 161]	> 7.60
CC[C@H]1CN(c2ncc(C(N)=O)nc2C)CCN1C1CCN(C(=O)c2ccc(C(F)(F)F)nc2N)CC1 [compound 165]	7.00 to 7.60
CC[C@H]1CN(c2nc(N)c(C(N)=O)nc2Cl)[C@H](C)CN1C1CCN(C(=O)c2ccc(Cl)nc2N)CC1 [compound 167]	> 7.60
CC[C@H]1CN(c2ncc(C(=O)NC(C)(C)C)nc2C)CCN1C1CCN(C(=O)c2ccc(Cl)nc2N)CC1 [compound 170]	> 7.60
CC[C@H]1CN(c2nc(N)c(C(=O)NCCO)nc2C)CCN1C1CCN(C(=O)c2ccc(Cl)nc2N)CC1 [compound 171]	> 7.60
CC[C@H]1CN(c2nc(N)c(C(=O)OC)nc2Cl)[C@H](C)CN1C1CCN(C(=O)c2ccc(Cl)nc2N)CC1 [compound 172]	> 7.60
CC[C@H]1CN(c2ncc(C(=O)NC)nc2C(F)(F)F)CCN1C1CCN(C(=O)c2ccc(Cl)nc2N)CC1 [compound 173]	> 7.60
CC[C@H]1CN(c2ncc(C(=O)NC3CC3)nc2C)CCN1C1CCN(C(=O)c2ccc(C(F)(F)F)nc2N)CC1 [compound 176]	> 7.60
CC[C@H]1CN(c2ncc(C(=O)NCCO)nc2C(F)(F)F)CCN1C1CCN(C(=O)c2ccc(Cl)nc2N)CC1 [compound 180]	> 7.60

The remaining lines, values ahead:

pIC50	SMILES
7.00 to 7.60	CC[C@H]1CN(c2nc(N)c(C(N)=O)nc2Cl)CCN1C1CCN(C2OC(C(=O)N(C)C)c3cc(Cl)ccc32)CC1 (some centres unmarked) [compound 151]
< 7.00	CC[C@H]1CN(c2nc(N)c(C(N)=O)nc2Cl)CCN1C1CCN(Cc2ccc(Cl)c3nn[nH]c23)CC1 [compound 153]
> 7.60	CC[C@H]1CN(c2ncc(C(=O)NC3CC3)nc2C)[C@H](C)CN1C1CCN(C(=O)c2ccc(Cl)nc2N)CC1 [compound 159]
> 7.60	CCNC(=O)c1cnc(N2C[C@H](CC)N(C3CCN(C(=O)c4ccc(Cl)nc4N)CC3)C[C@H]2C)c(C)n1 [compound 160]
> 7.60	CC[C@H]1CN(c2nc(N)c(C(N)=O)nc2C)CCN1C1CCN(C(=O)c2ccc(Cl)nc2N)CC1 [compound 162]
> 7.60	CC[C@H]1CN(c2ncc(C(=O)NC)nc2C)[C@H](C)CN1C1CCN(C(=O)c2ccc(Cl)nc2N)CC1 [compound 163]
> 7.60	CC[C@H]1CN(c2ncc(C(=O)OC)nc2C)[C@H](C)CN1C1CCN(C(=O)c2ccc(Cl)nc2N)CC1 [compound 164]
> 7.60	CC[C@H]1CN(c2ncc(C(=O)NC3(C)CC3)nc2C)[C@H](C)CN1C1CCN(C(=O)c2ccc(Cl)nc2N)CC1 [compound 174]
> 7.60	CC[C@H]1CN(c2nc(N)c(C(=O)NC3CC3)nc2C)[C@H](C)CN1C1CCN(C(=O)c2ccc(Cl)nc2N)CC1 [compound 175]
> 7.60	CC[C@H]1CN(c2nc(N)c(C(=O)NC3CC3)nc2Cl)[C@H](C)CN1C1CCN(C(=O)c2ccc(Cl)nc2N)CC1 [compound 177]
> 7.60	CC[C@H]1CN(c2ncc(C(=O)NC3CC3)nc2C(F)(F)F)CCN1C1CCN(C(=O)c2ccc(Cl)nc2N)CC1 [compound 178]
> 7.60	CC[C@H]1CN(c2ncc(C(=O)NC(C)C)nc2C(F)(F)F)CCN1C1CCN(C(=O)c2ccc(Cl)nc2N)CC1 [compound 179]
> 7.60	CC[C@H]1CN(c2ncc(C(=O)NC3CCC3)nc2C(F)(F)F)CCN1C1CCN(C(=O)c2ccc(Cl)nc2N)CC1 [compound 181]

Reference: patent US7879838B2, “Heteroaryl substituted pyrazinyl-piperazine-piperidines with CXCR3 antagonist activity” (Schering Corporation, priority 2005, dated 2011)
